Data: publication PMC5762859, “Distribution analysis of epertinib in brain metastasis of HER2-positive breast cancer by imaging mass spectrometry and prospect for antitumor activity” (Scientific Reports, 2018)
Like-named read-outs stand apart in the source and are kept apart here.

Key:
[1] = Quantitative MALDI-IMS of drug in brain metastases of the lung cancer IVM (NCI-H1975-luc); assay type: in vivo, mice; conditions: female, BALB/cAJcl-nu/nu, mouse, tumor (brain metastasis) in brain sections, 4 h after oral 100 mg/kg
From the text: All experimental protocols were approved by the Institutional Animal Care and Use Committee of Shionogi & Co., Ltd (Osaka, Japan) and performed in accordance with the Guidelines for Animal Experiments of Shionogi & Co., Ltd, which meet the ethical standards required by the law and the guidelines about the experimental animals in Japan. Nude mice (BALB/cAJcl-nu/nu, CLEA Japan) were used for in vivo studies. All mice were female and six to nine weeks old at the time of implantation. […] Plasma was separated by centrifugation at 3,000 rpm for 15 min at 4 °C and stored at −80 °C until analysis. […]
In the experimental brain metastasis of breast cancer or lung cancer (IVM), a cell suspension containing 2.0 × 10^6 cells (BR2), 1.7 × 10^6 cells (BR3), or 4.0 × 10^5 cells (NCI-H1975-luc) was implanted into the left ventricle of anaesthetized mice (Supplementary Fig. S1). […] For measurement of bioluminescence, 0.2 mL of 10 mg/mL luciferin solution was injected intravenously into anesthetized mice via the tail vein and the photons emitted from tumor measured by IVIS Imaging System 200 (Caliper Life Sciences). […]
Matrix-coated sections were analyzed using a linear ion trap mass spectrometer with a MALDI source (MALDI LTQ XL, Thermo Fisher Scientific Inc.) and a nitrogen laser (337 nm; 60 Hz). […] All compounds were detected in positive-ion mode using the product ion scans of their [M + H]^+ ions. […]

[2] = parameters: method as in PMID 25434923; conditions: human, cited from earlier work
[3] = Plasma concentration by LC-MS/MS in the breast cancer IVM; assay type: in vivo, mice; conditions: female, BALB/cAJcl-nu/nu, mouse, po, 50 mg/kg; for concentration at 4 h: 4 h after single oral 50 mg/kg; for concentration at 8 h: 8 h after single oral 50 mg/kg
From the text: (§1) All experimental protocols were approved by the Institutional Animal Care and Use Committee of Shionogi & Co., Ltd (Osaka, Japan) and performed in accordance with the Guidelines for Animal Experiments of Shionogi & Co., Ltd, which meet the ethical standards required by the law and the guidelines about the experimental animals in Japan. Nude mice (BALB/cAJcl-nu/nu, CLEA Japan) were used for in vivo studies. All mice were female and six to nine weeks old at the time of implantation. […] Plasma was separated by centrifugation at 3,000 rpm for 15 min at 4 °C and stored at −80 °C until analysis. After blood sampling, brain tissues were immediately excised, frozen on dry ice, and stored at −80 °C prior to sectioning.
(§2) The mixture was stirred for 10 min and centrifuged at 5,000 rpm for 5 min at 10 °C, and 1 µL of the supernatant was injected into the LC-MS/MS system. An ultra-HPLC system (Nexera LC-20A, Shimadzu Corp., Kyoto, Japan) with a triple quadrupole mass spectrometer (API 5000^TM, AB Sciex, Forester City, CA, USA) was used for LC/MS/MS analysis. The LC-MS/MS system was controlled by Analyst 1.4.2 (AB Sciex) software. Chromatographic separation was performed using a Cadenza CD-C18 HT column (50 × 2.0 mm i.d., 3 µm; Imtakt Corp., Kyoto, Japan).

HER2 = system: HER2; parameters: method as in PMID 24837299; conditions: between 6 and 24 h after a single administration; cited from earlier work
[4] = Plasma concentration in the lung cancer IVM; assay type: in vivo, mice; conditions: female, BALB/cAJcl-nu/nu, mouse, 4 h after oral 100 mg/kg
From the text: as §1, §2

EGFR = system: EGFR; parameters: method as in PMID 24837299; conditions: between 6 and 24 h after a single administration; cited from earlier work
[5] = Plasma and brain pharmacokinetics after single oral administration in mice implanted intracranially with MDA-MB-361 cells; conditions: for concentration at 8 h / Tmax / concentration at 0.5 h / concentration at 1 h / concentration at 2 h / concentration at 4 h / concentration at 24 h / AUC(0-t) / Cmax: female, mouse, po; for AUC0–24 h, brain / Cmax, brain: single oral 20 mg/kg, mice
From the text: as §1, §2

[6] = Plasma exposure after single oral administration in nude mice; assay type: in vivo; conditions: mouse, single oral 50 mg/kg, read-out: Plasma exposure (AUC0–24 h)
[7] = Quantitative MALDI-IMS of drug in brain metastases of the breast cancer IVM (BR2, BR3); assay type: in vivo, mice; conditions: for concentration at 4 h / concentration at 8 h: female, BALB/cAJcl-nu/nu, mouse, tumor (brain metastasis) in brain sections, po, 50 mg/kg, IMS; for concentration at 4 h: 4 h after single oral 50 mg/kg; for concentration at 8 h: 8 h after single oral 50 mg/kg
Procedure: BTB integrity in the IVM was assessed by measuring the fluorescence intensity of Texas-Red® dextran in the metastatic regions or brain parenchyma. Metastatic regions were defined as cancer cell clusters with DAPI staining in the same brain section (Fig. 2E and Supplementary Fig. S2C).
as §1
In the experimental brain metastasis of breast cancer or lung cancer (IVM), a cell suspension containing 2.0 × 10^6 cells (BR2), 1.7 × 10^6 cells (BR3), or 4.0 × 10^5 cells (NCI-H1975-luc) was implanted into the left ventricle of anaesthetized mice (Supplementary Fig. S1). In the intracranial implantation mice model, the cell suspension containing 3.1 × 10^5 cells was implanted into the craniotomy region (2 mm to the left of the bregma and 1 mm anterior to the coronal suture). For measurement of bioluminescence, 0.2 mL of 10 mg/mL luciferin solution was injected intravenously into anesthetized mice via the tail vein and the photons emitted from tumor measured by IVIS Imaging System 200 (Caliper Life Sciences).
Frozen brain tissues were cut into 10-µm sections using a cryostat (Leica CM3050 S; Leica Microsystems Inc., Wetzlar, Germany) at −20 °C. Sections were thaw-mounted onto glass microscope slides (Superfrost; Thermo Fisher Scientific Inc.) and stored at −80 °C until use. […] Standard solutions were spotted onto the glass microscope slides at 1 µL.
Matrix-coated sections were analyzed using a linear ion trap mass spectrometer with a MALDI source (MALDI LTQ XL, Thermo Fisher Scientific Inc.) and a nitrogen laser (337 nm; 60 Hz). Laser energy and raster step size were set at 30 µJ and 100 µm, respectively. All compounds were detected in positive-ion mode using the product ion scans of their [M + H]^+ ions. […] Heme B was detected by MS3 (m/z 616 → 557 → 498) as a blood biomarker.
Spectral data were acquired using Xcalibur 2.0.7 software (Thermo Fisher Scientific Inc.) and the localization and concentration of all compounds in the brain sections were analyzed using Quantinetix 1.7.10 software (ImaBiotech, Loos, France). The fluorescence intensity of Texas-Red® dextran and immunostaining intensity of HER2 were analyzed using a BZ-X analyzer (Keyence). Statistical analyses were performed using SAS software (version 9.4).

P-glycoprotein (P-gp) = target: T1, P-glycoprotein (P-gp) (Homo sapiens, UniProt P08183); experiment: P-gp substrate assessment; assay type: in vitro ADME; conditions: from permeability and efflux ratio across Caco-2 cell monolayers
T1 construct: permeability and efflux ratio of epertinib across Caco-2 cell monolayers; endogenous in cells; host or cells: Caco-2

[8] = BALB/cAJcl-nu/nu nude, brain, 20 mg/kg
[9] = BALB/cAJcl-nu/nu, brain, 20 mg/kg
[10] = BALB/cAJcl-nu/nu, plasma, 20 mg/kg

T1 sequence (P08183 whole entry): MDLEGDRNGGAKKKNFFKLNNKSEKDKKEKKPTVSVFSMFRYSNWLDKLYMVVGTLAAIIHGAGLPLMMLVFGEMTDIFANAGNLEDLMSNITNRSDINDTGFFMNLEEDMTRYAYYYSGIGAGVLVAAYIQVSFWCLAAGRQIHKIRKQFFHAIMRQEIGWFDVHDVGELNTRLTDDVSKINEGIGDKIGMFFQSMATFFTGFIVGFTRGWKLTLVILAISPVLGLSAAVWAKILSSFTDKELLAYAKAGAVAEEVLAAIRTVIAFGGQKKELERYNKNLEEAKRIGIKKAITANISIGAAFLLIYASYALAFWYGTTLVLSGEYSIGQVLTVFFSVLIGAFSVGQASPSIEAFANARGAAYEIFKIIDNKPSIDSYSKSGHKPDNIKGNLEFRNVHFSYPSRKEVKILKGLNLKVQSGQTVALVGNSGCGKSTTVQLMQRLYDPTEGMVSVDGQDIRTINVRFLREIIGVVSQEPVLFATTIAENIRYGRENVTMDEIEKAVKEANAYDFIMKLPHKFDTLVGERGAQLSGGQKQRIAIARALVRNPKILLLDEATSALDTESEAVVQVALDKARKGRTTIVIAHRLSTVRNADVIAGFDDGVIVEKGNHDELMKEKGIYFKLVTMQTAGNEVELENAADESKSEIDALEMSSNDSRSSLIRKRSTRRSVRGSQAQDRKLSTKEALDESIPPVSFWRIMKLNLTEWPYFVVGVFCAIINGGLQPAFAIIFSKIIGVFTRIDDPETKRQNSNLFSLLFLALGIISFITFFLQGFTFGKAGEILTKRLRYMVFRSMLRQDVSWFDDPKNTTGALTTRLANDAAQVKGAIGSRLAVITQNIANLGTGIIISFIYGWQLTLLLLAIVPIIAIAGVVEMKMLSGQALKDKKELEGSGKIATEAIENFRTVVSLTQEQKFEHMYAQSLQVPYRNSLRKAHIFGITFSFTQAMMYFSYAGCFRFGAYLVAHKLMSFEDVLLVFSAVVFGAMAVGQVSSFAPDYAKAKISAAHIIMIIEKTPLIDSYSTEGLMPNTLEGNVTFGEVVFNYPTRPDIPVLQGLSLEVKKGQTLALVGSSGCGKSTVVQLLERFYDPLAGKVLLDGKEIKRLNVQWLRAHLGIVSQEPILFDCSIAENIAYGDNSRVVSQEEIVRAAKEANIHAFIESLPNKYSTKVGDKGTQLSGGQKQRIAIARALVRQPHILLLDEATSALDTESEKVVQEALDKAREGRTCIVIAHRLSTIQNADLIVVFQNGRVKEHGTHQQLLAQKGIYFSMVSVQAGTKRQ

CS(=O)(=O)CCNCc1ccc(-c2ccc3ncnc(Nc4ccc(OCc5cccc(F)c5)c(Cl)c4)c3c2)o1 [Lapatinib, N-{3-chloro-4-[(3-fluorobenzyl)oxy]phenyl}-6-[5-({[2-(methylsulfonyl)ethyl]amino}methyl)-2-furyl]-4-quinazolinamine, reference compound]
concentration at 4 h [1]: 7080 ng/g
Plasma exposure (AUC0–24 h) ([2]; effective dose 1250 mg/day): 27300 ng·h/mL
concentration at 4 h ([3]; BR2 IVM): 6690 ± 1310 ng/mL
concentration at 4 h ([3]; BR3 IVM): 2140 ± 220 ng/mL
concentration at 8 h ([3]; BR3 IVM): 630 ng/mL
Inhibitory activity on HER2 phosphorylation at 24 h (HER2): largely disappeared
concentration at 4 h [4]: 9360 ± 1780 ng/mL
Inhibitory activity on EGFR phosphorylation at 24 h (EGFR): largely disappeared
concentration at 8 h [5, 8]: 5.8 ng/g
Tmax [5, 9]: 4 h
concentration at 0.5 h [5, 9]: 11.8 ng/g
concentration at 1 h [5, 9]: 15.7 ng/g
concentration at 2 h [5, 9]: 10 ng/g
concentration at 4 h [5, 9]: 17 ng/g
concentration at 24 h [5, 9]: 0.4 ng/g
AUC(0-t) [5, 10]: 4110 ng·h/mL
Cmax [5, 10]: 985 ng/mL
Tmax [5, 10]: 0.5 h
concentration at 0.5 h [5, 10]: 984 ng/mL
concentration at 1 h [5, 10]: 763 ng/mL
concentration at 2 h [5, 10]: 413 ng/mL
concentration at 4 h [5, 10]: 461 ng/mL
concentration at 8 h [5, 10]: 99.6 ng/mL
concentration at 24 h [5, 10]: 5.4 ng/mL
AUC0–24 h, brain [5]: 144 ng·h/g
Cmax, brain [5]: 17 ng/g
AUC(0-t) [6]: 34100 ng·h/mL
concentration at 4 h ([7]; BR2 IVM): 160 ng/g
concentration at 4 h ([7]; BR3 IVM): 200 ng/g
concentration at 8 h ([7]; BR3 IVM): 190 ng/g

CC#CC(=NOCC1COCCN1)c1ccc2ncnc(Nc3ccc(OCc4cccc(F)c4)c(Cl)c3)c2c1 (stereo not shown) [Epertinib]
concentration at 4 h [1]: 6700 ng/g
Plasma exposure (AUC0–24 h) ([2]; effective dose 800 mg/day): 9170 ng·h/mL
concentration at 4 h ([3]; BR2 IVM): 1440 ± 50 ng/mL
concentration at 4 h ([3]; BR3 IVM): 1300 ± 120 ng/mL
concentration at 8 h ([3]; BR3 IVM): 920 ± 300 ng/mL
Inhibitory activity on HER2 phosphorylation at 24 h (HER2): persisted at 24 h
concentration at 4 h [4]: 2760 ± 660 ng/mL
Inhibitory activity on EGFR phosphorylation at 24 h (EGFR): persisted at 24 h
Brain concentration of epertinib relative to that of lapatinib ([5]; 4 h after oral administration, 20 mg/kg): approximately twice
concentration at 8 h [5, 8]: 23.8 ng/g
Tmax [5, 9]: 4 h
concentration at 0.5 h [5, 9]: 10.2 ng/g
concentration at 1 h [5, 9]: 12.8 ng/g
concentration at 2 h [5, 9]: 23 ng/g
concentration at 4 h [5, 9]: 36.3 ng/g
concentration at 24 h [5, 9]: 1.7 ng/g
concentration at 0.5 h ([5]; BALB/cAJcl-nu/nu, in vivo, 20 mg/kg): 99.8 ng/mL
AUC(0-t) [5, 10]: 1260 ng·h/mL
Cmax [5, 10]: 145 ng/mL
Tmax [5, 10]: 2 h
concentration at 1 h [5, 10]: 113 ng/mL
concentration at 2 h [5, 10]: 145 ng/mL
concentration at 4 h [5, 10]: 115 ng/mL
concentration at 8 h [5, 10]: 54.7 ng/mL
concentration at 24 h [5, 10]: 2.1 ng/mL
AUC0–24 h, brain [5]: 409 ng·h/g
Cmax, brain [5]: 36 ng/g
AUC(0-t) [6]: 9980 ng·h/mL
P-gp substrate (P-glycoprotein (P-gp)): not a substrate
Concentration measured in brain metastases of the IVM with breast cancer ([7]; breast cancer IVM): 5.2 µM
Tumor concentration of epertinib relative to that of lapatinib ([7]; breast cancer IVMs, 4 h after administration): > 10 times
concentration at 4 h ([7]; BR2 IVM): 2930 ng/g
concentration at 4 h ([7]; BR3 IVM): 2700 ng/g
concentration at 8 h ([7]; BR3 IVM): 2710 ng/g
